Results on one compound are retold here after patent US11679065B2, “Compositions with sulfur having enhanced efficacy and aesthetics” (The Procter & Gamble Company, priority 2020, dated 2023).

Assay [1] has as its system Malassezia. Nature of the assay: Minimal inhibitory concentration of sulfur (known value). It is filed as cell-based. Conditions: generally accepted MIC, gray box in FIGS. 1-4. The procedure: A dissolution and diffusion model is utilized to help dimension sulfur solubility in sebum over a 24 hour period. The model predicts where sulfur concentration will rise above the minimal inhibitory concentration (MIC is known to be in the range of 10-50 ppm for sulfur), for the fungus that causes dandruff (Malassezia). The model factors in sulfur dissolution varying sebum thickness and sebum production rate over the 24 hour period as well as a loss term for sulfur migration into the scalp/stratum corneum. FIGS. 1-4) show simulation outputs for mean sulfur particles sizes, 2, 34, 100 and 150 micron sulfur particles respectively wherein each graph is a compilation of curves representing variations in initial sebum thickness and production rate. The gray box in each figure represents a range of sulfur concentrations that encompass the generally accepted MIC (log 10(MIC) range is 1-1.7). It is observed from the simulations that as particle size increases, the approximate number of hours that sulfur concentration is above the MIC expands until the particle size of about 150 microns, wherein the dissolution of sulfur in sebum becomes the rate limiting step and the concentration of sulfur never exceeds the MIC needed for a dandruff benefit.

Assay [2] deals with Malassezia. Conditions: fungus that causes dandruff (Malassezia); known range; cited from earlier work.

Molecules are shown by their SMILES.

With `S1SSSSSSS1` [Sulfur], the “log 10(MIC) range” value in the assay with Malassezia [1] is given as 1-1.7. The “minimal inhibitory concentration (MIC)” value in the assay with Malassezia [2] was 10-50 ppm.
